# Test results taken from US20090060984A1, “ANIONIC SURFACTANTS LETHAL TO GRAM-POSITIVE BACTERIA” (priority 2007, published 2009).
# Where “and” joins values, the source holds several entries; their conditions need not be identical. Equal values may be shown once. Read-outs that look alike come from different tables or passages of the source.
# Columns and labels:
# [1] = tested on: Escherichia coli ATCC 11229; conditions: for E. coli on sprayed household surfaces: metal plate, wall paper, vinyl tile, 0.06% silver solution
# Procedure: The antimicrobial activities of the coatings on coupons and slides are tested against both Gram-positive (Staphylococcus aureus ATCC 6538) and Gram-negative (Escherichia coli ATCC 11229) bacteria. The following set of steps are executed over a four day period, in order to evaluate the coatings for antimicrobial activity.
# (1) Three colonies are picked from a Petri dish that contains refrigerator stock of E. coli and S. aureus. Each of the colonies is placed into a separate test tube of 5 mL of TSB (tryptic soy broth); (2) the TSB cultures are incubated in a heated shaker; the culture is grown overnight at 37° C. while shaking at 175 rpm.
# (1) 500 μL (0.5 mL) of FINAL E. coli bacteria are placed onto the center of each sterilized coating (24 hour); the same is done with S. aureus; (2) the coupons/coatings are stored for 24 hours in sealed pan by stacking Petri dishes on top of one another; (3) 200 mL of sterile water is added to the bottom of each pan; each pan is enclosed with clear saran wrap and aluminum foil; the Pyrex pans containing the coatings are incubated at room temperature for 24 hours; all inoculations of the coatings are performed in the same laminar flow hood as where the sterilized slides are placed into sterile Petri dishes; the prepared bacterial suspension (0.5 ml) is directly pipetted onto the coating of the slide; the spreading of the innoculum across the surface of the coating is observed and noted.
# (1) 500 μL (0.5 mL) of FINAL E. coli bacteria is placed onto the center of each sterilized coating (0 hour); the same is done with S. aureus; (2) after bacteria are added to the 0 hour coatings, each Petri dish (containing the coating) is submerged with 25 mL of PBS; this immersion stops the viable bacteria from continuing to grow; (3) 100 μL of fluid is removed from coatings dish and placed in the middle of a previously labeled TSA plate; this is done to both agar plates labeled with −1 concentration; before removing the fluid, the surface of the coupon is scratched with a sterile loop to activate movement of bacteria; (4) “hockey sticks” are sterilized with ethanol and flame, to spread solution thoroughly; (5) the concentration of bacteria is diluted by removing 500 μL of the fluid in the coupon dish and placing it into a test tube with 4.5 mL of PBS; this solution is diluted in duplicate by removing 100 μL of the fluid and spreading into TSA plates labeled −2; (6) sterilized “hockey sticks” are used to spread solution thoroughly; (7) 500 μL of fluid from 1st tube prepared in step 5 is removed and placed into 4.5 mL of PBS; this dilution is mixed and 100 μL is removed in duplicate and placed into two new TSA plates labeled −3; (8) sterilized “hockey sticks” are used to spread these dilutions thoroughly; (9) steps 1-8 are repeated for each of the coupons or slides.
# [2] = tested on: Staphylococcus aureus ATCC 6538;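 further: bacterial suspension pipetted onto each coated surface, then recovered in PBS, serially diluted and spread on TSA plates to count viable colonies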
# [3] = acetate sprayed with 0.06% w/w AgAOT/isopropanol, 0 h contact time
# [4] = acetate sprayed with 0.06% w/w AgAOT/isopropanol, 24 h contact time
# [5] = cotton sprayed with 0.06% w/w AgAOT/isopropanol, 0 h contact time
# [6] = cotton sprayed with 0.06% w/w AgAOT/isopropanol, 24 h contact time
# [7] = linen sprayed with 0.06% w/w AgAOT/isopropanol, 0 h contact time
# [8] = linen sprayed with 0.06% w/w AgAOT/isopropanol, 24 h contact time
# [9] = metal plate sprayed with 0.06% Ag+ AgAOT solution, 0 h contact time
# [10] = metal plate sprayed with 0.06% Ag+ AgAOT solution, 24 h contact time
# [11] = polyester sprayed with 0.06% w/w AgAOT/isopropanol, 0 h contact time
# [12] = polyester sprayed with 0.06% w/w AgAOT/isopropanol, 24 h contact time
# [13] = rayon sprayed with 0.06% w/w AgAOT/isopropanol, 0 h contact time
# [14] = rayon sprayed with 0.06% w/w AgAOT/isopropanol, 24 h contact time
# [15] = silk sprayed with 0.06% w/w AgAOT/isopropanol, 0 h contact time
# [16] = silk sprayed with 0.06% w/w AgAOT/isopropanol, 24 h contact time
# [17] = silk sprayed with 0.24% w/w AgAOT/isopropanol, 0 h
# [18] = silk sprayed with 0.24% w/w AgAOT/isopropanol, 24 h
# [19] = vinyl tile sprayed with 0.06% Ag+ AgAOT solution, 0 h contact time
# [20] = vinyl tile sprayed with 0.06% Ag+ AgAOT solution, 24 h contact time
# [21] = wall-paper sprayed with 0.06% Ag+ AgAOT solution, 0 h contact time
# [22] = wall-paper sprayed with 0.06% Ag+ AgAOT solution, 24 h contact time
smiles,measurement,setting,value
CCCCC(CC)COC(=O)CC(C(=O)OCC(CC)CCCC)S(=O)(=O)[O-].[Ag+] (stereo not shown) [AgAOT],E. coli growth on sprayed fabrics,"[1]; 0.06% Ag AgAOT/isopropanol, 24 h contact time","With the single exception of silk, complete eradication is obtained for each of the other fabrics"
same,"E. coli CFU/mL, Average",[1]; [3],3.08E+05 CFU/mL
same,"E. coli CFU/mL, Average",[1]; [4],0.00E+00 CFU/mL
same,"E. coli CFU/mL, Run #1-#4",[1]; [4],0.00E+00 CFU/mL
same,"E. coli CFU/mL, Average",[1]; [5],2.53E+05 CFU/mL
same,"E. coli CFU/mL, Average",[1]; [6],0.00E+00 CFU/mL
same,"E. coli CFU/mL, Run #1-#4",[1]; [6],0.00E+00 CFU/mL
same,"E. coli CFU/mL, Average",[1]; [7],1.46E+05 CFU/mL
same,"E. coli CFU/mL, Average",[1]; [8],0.00E+00 CFU/mL
same,"E. coli CFU/mL, Run #1-#4",[1]; [8],0.00E+00 CFU/mL
same,"E. coli CFU/mL, Avg",[1]; [9],3.10E+05 CFU/mL
same,"E. coli CFU/mL, Run #1-#2",[1]; [9],3.40E+05 CFU/mL and 2.80E+05 CFU/mL
same,"E. coli CFU/mL, Avg",[1]; [10],0.00E+00 CFU/mL
same,"E. coli CFU/mL, Run #1-#2",[1]; [10],0.00E+00 CFU/mL
same,E. coli on sprayed household surfaces,[1]; 0 h contact time (5-10 minutes),does not significantly attenuate E. coli growth
same,E. coli on sprayed household surfaces,[1]; 24 h contact time,eradicated on each of the samples
same,"E. coli CFU/mL, Average",[1]; [11],9.10E+04 CFU/mL
same,"E. coli CFU/mL, Average",[1]; [12],0.00E+00 CFU/mL
same,"E. coli CFU/mL, Run #1-#4",[1]; [12],0.00E+00 CFU/mL
same,"E. coli CFU/mL, Average",[1]; [13],2.88E+05 CFU/mL
same,"E. coli CFU/mL, Average",[1]; [14],3.25E+05 CFU/mL
same,"E. coli CFU/mL, Average",[1]; [15],2.55E+05 CFU/mL
same,"E. coli CFU/mL, Run #1-#2",[1]; [15],2.70E+05 CFU/mL and 2.40E+05 CFU/mL
same,"E. coli CFU/mL, Average",[1]; [16],2.75E+07 CFU/mL
same,"E. coli CFU/mL, Average",[1]; [17],3.38E+05 CFU/mL
same,"E. coli CFU/mL, Run #1-#4",[1]; [17],3.20E+05 CFU/mL and 3.60E+05 CFU/mL and 3.10E+05 CFU/mL
same,"E. coli CFU/mL, Average",[1]; [18],0.00E+00 CFU/mL
same,"E. coli CFU/mL, Run #1-#4",[1]; [18],0.00E+00 CFU/mL
same,"E. coli CFU/mL, Avg",[1]; [19],2.60E+05 CFU/mL
same,"E. coli CFU/mL, Run #1-#2",[1]; [19],2.30E+05 CFU/mL and 2.90E+05 CFU/mL
same,"E. coli CFU/mL, Avg",[1]; [20],0.00E+00 CFU/mL
same,"E. coli CFU/mL, Run #1-#2",[1]; [20],0.00E+00 CFU/mL
same,"E. coli CFU/mL, Avg",[1]; [21],1.94E+05 CFU/mL
same,"E. coli CFU/mL, Avg",[1]; [22],0.00E+00 CFU/mL
same,"E. coli CFU/mL, Run #1-#2",[1]; [22],0.00E+00 CFU/mL
same,"S. aureus CFU/mL, Average",[2]; [3],0.00E+00 CFU/mL
same,"S. aureus CFU/mL, Run #1-#4",[2]; [3],0.00E+00 CFU/mL
same,"S. aureus CFU/mL, Average",[2]; [4],0.00E+00 CFU/mL
same,"S. aureus CFU/mL, Run #1-#4",[2]; [4],0.00E+00 CFU/mL
same,"S. aureus CFU/mL, Average",[2]; [5],0.00E+00 CFU/mL
same,"S. aureus CFU/mL, Run #1-#4",[2]; [5],0.00E+00 CFU/mL
same,"S. aureus CFU/mL, Average",[2]; [6],0.00E+00 CFU/mL
same,"S. aureus CFU/mL, Run #1-#4",[2]; [6],0.00E+00 CFU/mL
same,"S. aureus CFU/mL, Average",[2]; [7],1.24E+04 CFU/mL
same,"S. aureus CFU/mL, Average",[2]; [8],0.00E+00 CFU/mL
same,"S. aureus CFU/mL, Run #1-#4",[2]; [8],0.00E+00 CFU/mL
same,"S. aureus CFU/mL, Avg",[2]; [9],3.90E+04 CFU/mL
same,"S. aureus CFU/mL, Avg",[2]; [10],0.00E+00 CFU/mL
same,"S. aureus CFU/mL, Run #1-#2",[2]; [10],0.00E+00 CFU/mL
same,S. aureus on sprayed household surfaces,"[2]; metal plate, wall paper, vinyl tile, 0.06% silver solution, 24 h contact time",Complete killing is obtained for each of the surfaces
same,"S. aureus CFU/mL, Average",[2]; [11],0.00E+00 CFU/mL
same,"S. aureus CFU/mL, Run #1-#4",[2]; [11],0.00E+00 CFU/mL
same,"S. aureus CFU/mL, Average",[2]; [12],0.00E+00 CFU/mL
same,"S. aureus CFU/mL, Run #1-#4",[2]; [12],0.00E+00 CFU/mL
same,"S. aureus CFU/mL, Average",[2]; [13],1.88E+02 CFU/mL
same,"S. aureus CFU/mL, Average",[2]; [14],0.00E+00 CFU/mL
same,"S. aureus CFU/mL, Run #1-#4",[2]; [14],0.00E+00 CFU/mL
same,Inhibition of S. aureus growth,"[2]; rayon, 0.06% Ag AgAOT/isopropanol, 0 h contact time",3 orders of magnitude
same,"S. aureus CFU/mL, Average",[2]; [15],1.45E+05 CFU/mL
same,"S. aureus CFU/mL, Run #1-#2",[2]; [15],1.80E+05 CFU/mL and 1.10E+05 CFU/mL
same,"S. aureus CFU/mL, Average",[2]; [16],9.13E+03 CFU/mL
same,"S. aureus CFU/mL, Average",[2]; [17],1.35E+05 CFU/mL
same,"S. aureus CFU/mL, Average",[2]; [18],0.00E+00 CFU/mL
same,"S. aureus CFU/mL, Run #1-#4",[2]; [18],0.00E+00 CFU/mL
same,"S. aureus CFU/mL, Avg",[2]; [19],1.25E+05 CFU/mL
same,"S. aureus CFU/mL, Avg",[2]; [20],0.00E+00 CFU/mL
same,"S. aureus CFU/mL, Run #1-#2",[2]; [20],0.00E+00 CFU/mL
same,"S. aureus CFU/mL, Avg",[2]; [21],9.75E+04 CFU/mL
same,"S. aureus CFU/mL, Avg",[2]; [22],0.00E+00 CFU/mL
same,"S. aureus CFU/mL, Run #1-#2",[2]; [22],0.00E+00 CFU/mL
